Source: ChEMBL document CHEMBL1138872, “Free radical scavengers from the medicinal mushroom Inonotus xeranticus and their proposed biogenesis” (Bioorg Med Chem Lett, 2006)

Legend:
Format in all cases: functional
[1] = DPPH radical scavenging activity
[2] = ABTS radical scavenging activity
[3] = Superoxide anion radical scavenging activity by xanthine/xanthine oxidase method

Row | Compound | IC50 [1] [µM] | IC50 [2] [µM] | IC50 [3] [µM]
1 | O=c1oc2cc(/C=C/c3ccc(O)c(O)c3)oc(=O)c2c2cc(O)c(O)cc12 [PHELLIGRIDIN D] | > 100 | 13.7 | > 100
2 | COC1Oc2cc(/C=C/c3ccc(O)c(O)c3)oc(=O)c2-c2cc(O)c(O)cc21 (stereo unspecified) [INOSCAVIN D] | > 100 | 12.5 | > 100
3 | COc1cc(/C=C/c2cc3c(c(=O)o2)-c2cc(O)c(O)cc2C(OC)O3)ccc1O (stereo unspecified) [METHYLINOSCAVIN D] | > 100 | 8.7 | 40.7

Stronger by IC50 [1], values ahead:

Row | IC50 [1] [µM] | IC50 [2] [µM] | IC50 [3] [µM] | Compound
4 | 30 | 2.8 | 2.9 | O=C(O)/C=C/c1ccc(O)c(O)c1 [CAFFEIC ACID]
5 | 29.4 | 5 | 25.3 | O=Cc1ccc(O)c(O)c1 [PROTOCATECHUALDEHYDE]
6 | 27 | 15.7 | > 100 | O=C(O)c1ccc(O)c(O)c1 [PROTOCATECHUIC ACID]
7 | 11.5 | 8.8 | > 100 | VITAMIN E
